Laboratory results reported in patent US6184246A, “Inhibition of cytokine production by polymethoxylated flavones” (priority 1999, dated 2001).
Entries after “also recorded” stand apart in the source; their conditions may differ. Like-named read-outs stand apart in the source and are kept apart here.

Legend:
[1] = tested on: IL-1β mRNA; test: IL-1β mRNA level by RT-PCR in LPS-stimulated monocytes; assay type: cell-based, human; conditions: data not shown
Method: (§1) Analysis of specific mRNA levels by reverse transcriptase-polymerase chain reaction (RT-PCR): Monocytes were purified from PBMC by centrifugal elutriation. Monocytes were resuspended to 5×10^6 /mL in complete medium and 2 mL of cell suspension were dispensed into FALCON 17×100 mm polypropylene culture tubes (Becton Dickinson). Cultures were adjusted to contain graded concentrations of HMF and cultured 30 min at 37° C. and 5% CO2. Cultures were then adjusted to contain 20 ng/mL LPS for an additional 90 min. Culture media was then removed and monocytes were lysed in RNAzol (Teltext Inc., Friendswood, Tex.) and total RNA was isolated according to the manufacturer's instructions. Relative levels of TNFα and IL-1β mRNA were then measured by RT-PCR as previously described (Manthey, C. L., J. Leuk Biol. 1998, 64: 409-416). PCR was carried out in the presence of [α-^32 P]dCTP. Radiolabeled products were resolved by agarose gel electrophoresis and quantified using a PhosphorImager (Molecular Dynamics, Sunnyvale, Calif.). For these reactions, the following primer sets were used:
IL-1β, (5'): GACACATGGGATAACGAGGCT, (3'): ACGCAGGACAGGTACAGATTC.

[2] = tested on: TNFα; test: TNFα production by LPS-stimulated human monocytes (ELISA); assay type: cell-based; conditions: for inhibition of TNFα production (in words): LPS-stimulated human monocytes; for IC50: read-out: IC50 for inhibition of TNFα production
Method: Isolation of human peripheral blood monocytes: Peripheral blood mononuclear cells (PBMCs) were isolated from residual source leukocytes (Bonfils Blood Center, CO) by density gradient centrifugation using Ficoll-Paque Plus (Pharmacia, Sweden).
(§2) To measure the impact of the flavones on cytokine production, PBMCs were resuspended to 4×10^6 /mL in complete medium, i.e., Dulbecco's Modified Eagle Medium containing 30% FCS, 2 mM glutamine, 100 U/mL Penicillin-G, and 100 μg/mL streptomycin. […] Nonadherent cells (lymphocytes) were separated from the plastic adherent cells (monocytes) by washing the wells twice with 200 μL of medium. The monocytes were cultured an additional 30 min in 100 μL of complete medium containing graded concentrations of the compound of interest and the cultures were then adjusted to contain […] LPS to stimulate cytokine production. Culture supernatants were harvested 14 h later, and cells were lysed by addition of 50 μL of Dulbecco's phosphate buffered saline containing 1% NP40. Culture supernatants were evaluated for TNFα, IL-1β, IL-6, IL-8, IL-10, and MIP-1α content using specific enzyme-linked immunosorbent assays (ELISA) purchased from R&D Systems. IL-1β was measured in cell lysates by ELISA. Lactate dehydrogenase (LDH) content of cell lysates was measured to determine compound effects on cell viability: To 50 μL of lysate were added 200 μL of 50 mM sodium pyrophosphate buffer (pH 8.9) containing 50 mM lactic acid and 4 mg/mL β-nicotinamide adenine dinucleotide (Sigma); rates of reduction of nicotinamide adenine dinucleotide were measured at room temperature at 340 nm.

[3] = tested on: type-IV phosphodiesterase semi-purified from U937 cells; test: Phosphodiesterase cAMP SPA enzyme assay; assay type: biochemical; conditions: hydrolysis of cAMP; read-out: concentration inhibiting phosphodiesterase activity 50%
Method: PDE semipurified from U937 monocytic cells was evaluated for the ability to catalyze the hydrolysis of cAMP in the presence of graded concentrations of flavone, myricetin, and HMF as described below. The rates are plotted as percent of control-reactions, where no flavonoids were present. Testing flavones as phosphodiesterase inhibitors and inducers of cellular cyclic adenosine monophosphate (cAMP): The Phosphodiesterase cAMP SPA Enzyme Assay (Amersham, Arlington Heights, Ill.) was used to test the ability of flavones to inhibit cAMP hydrolysis catalyzed by phosphodiesterase. The phosphodiesterase used in this study was semi-purified from U937 cells, and was determined to be mostly the type-IV isoform based on sensitivity to selected isoform inhibitors (Trophy, T. J., J. Pharmacol. Experimental Therapeutics, 1195-1205 (1992)).

[4] = tested on: TNFα mRNA; test: TNFα mRNA level by RT-PCR in LPS-stimulated monocytes; assay type: cell-based, human; conditions: graded concentrations, 20 ng/mL LPS, 90 min, GAPDH internal standard
Method: Primary elutriated human monocytes were cultured in the presence of graded concentrations of HMF for 30 min. The monocyte cultures were then adjusted to contain 20 ng/mL LPS. At 90 min of culture, monocytes were harvested by centrifugation, and RNA was isolated from the cell pellet. Relative levels of TNFα and the constitutively expressed glyceraldehyde 3-phosphate dehydrogenase (GAPDH) mRNA were determined by RT-PCR as described below.
as §1, with “Culture media was then removed and monocytes were lysed in RNAzol (Teltext Inc., Friendswood, Tex.) and total RNA was isolated according to the manufacturer's instructions.” left out, “PCR was carried out in the presence of [α-^32 P]dCTP.” left out, “For these reactions, the following primer sets were used:” left out

[5] = tested on: IL-6; test: IL-6 production by LPS-stimulated human monocytes (ELISA); assay type: cell-based; conditions: for suppression of IL-6 production: cytokine suppression profile, HMF compared against IBMX (Table 2)
Method: (§3) Adherent purified human monocytes were cultured in the presence of graded concentrations of heptamethoxyflavone for 30 min. The monocyte cultures were then adjusted to contain 20 ng/mL LPS. After 14 h of culture, the cytokines TNFα, IL-6, IL-8, MIP-1α, and IL-10 were assayed in the culture supernatants and IL-1β was assayed in the cell lysates using specific ELISA assays as described below. Values expressed as the percent of cytokine produced in flavone-free cultures are the means and standard errors determined using monocytes isolated from three independent donors.
(§4) Isolation of human peripheral blood monocytes: Peripheral blood mononuclear cells (PBMCs) were isolated from residual source leukocytes (Bonfils Blood Center, CO) by density gradient centrifugation using Ficoll-Paque Plus (Pharmacia, Sweden). Monocytes were purified further by plastic adherence (see below) or by centrifugal elutriation as described previously (Manthey, C. L., et al., J. Leuk Biol., 64: 409-416 (1998)).
(§5) IL-1β was measured in cell lysates by ELISA.

[6] = tested on: intracellular cAMP; test: Cellular cAMP in human monocytes (EIA); assay type: cell-based; conditions: 30 min; for intracellular cAMP level: media alone 2.7±0.9
Method: To test flavones for the ability to cause an increase in cellular cAMP, monocytes were purified from PBMC by centrifugal elutriation. Monocytes were resuspended to 5×10^6 /mL in complete medium and 2 mL cell suspension were dispensed into FALCON 17×100 mm polypropylene culture tubes (Becton Dickinson). The cells were precultured 2 h at 37° C. and 5% CO2, and then cultured an additional 30 min following adjusting culture media to contain 100 μM of the flavone of interest or 200 μM IBMX (3-isobutyl-1-methylxanthine). Cells were then collected by centrifugation, lysed in 300 μL of ice cold aqueous solution containing 10 mM HEPES (pH 7.6) and 1% NP40. The lysates were applied to 100 mg columns of Amprep SAX resin (Amersham). The columns were then rinsed with 1 mL of methanol and the cAMP was eluted in 600 μL of methanol containing 0.01 M HCl. The eluates were chilled on dry ice and dried under vacuum. The Amersham Biotrak cAMP EIA assay was used to measure cAMP content of residues resuspended in 400 μL of assay buffer.

[7] = tested on: MIP-1α; test: MIP-1α production by LPS-stimulated human monocytes (ELISA); assay type: cell-based
Method: as §3, §4, §5

[8] = tested on: IL-1β; test: IL-1β production by LPS-stimulated human monocytes (ELISA, cell lysates); assay type: cell-based; conditions: for suppression of IL-1β production: cytokine suppression profile, HMF compared against IBMX (Table 2)
Method: as §3, §4, §5

[9] = tested on: IL-10; test: IL-10 production by LPS-stimulated human monocytes (ELISA); assay type: cell-based; conditions: for inhibition of IL-10 production (in words): LPS-stimulated human monocytes
Method: as §3, §4, §5

[10] = tested on: IL-8; test: IL-8 production by LPS-stimulated human monocytes (ELISA); assay type: cell-based; conditions: for suppression of IL-8 production: cytokine suppression profile, HMF compared against IBMX (Table 2)
Method: as §3, §4, §5

[11] = tested on: human monocytes; test: Cytotoxicity by LDH content of monocyte lysates
Method: as §2

[12] = tested on: TNFα; conditions: mice, cited from earlier work
[13] = Monocyte, human monocytes, 30 min preculture with compound, LPS, 14 h, 30% FCS
[14] = human monocytes, LDH content of cell lysates
[15] = human monocytes, 30 min preculture with compound, LPS, 14 h, 30% FCS

COc1ccc(-c2oc3c(OC)c(OC)c(OC)c(OC)c3c(=O)c2OC)cc1OC [HMF, 3,5,6,7,8,3',4'-heptamethoxyflavone]
induction of IL-1β mRNA [1]: not effected
inhibition of TNFα production (in words) [2]: potent inhibitor
IC50 [2, 13]: 5 µM
IC50 [3]: 2 µM
suppression of lipopolysaccharide-induced TNFα mRNA expression [4]: suppress; also recorded: selectively blocks
inhibition of lipopolysaccharide-induced expression of IL-6 ([5]; 100 μM): no inhibition
activation at 100 µM ([5]; Homo sapiens, Monocyte, 14 h, 100 μM, read-out: increase of IL-6 expression): 30%
suppression of IL-6 production [5]: neither suppressed
increase of monocyte cAMP levels over media alone (in words) ([6]; 100 μM): at least a doubling
intracellular cAMP level ([6]; 100 μM): 5.7±1.8 pmol/10^7 cells
inhibition of MIP-1α production (in words) ([7]; LPS-stimulated human monocytes): potent inhibitor
IC50 ([7]; Monocyte, monocytes from three independent human donors, LPS, 14 h, read-out: IC50 for inhibition of MIP-1α): 7.3 ± 0.7 µM
inhibition of lipopolysaccharide-induced expression of IL-1β ([8]; 100 μM): no inhibition
suppression of IL-1β production [8]: neither suppressed
inhibition of IL-10 production (in words) [9]: potent inhibitor; also recorded: inhibition
IC50 ([9]; Monocyte, monocytes from three independent human donors, LPS, 14 h, read-out: IC50 for inhibition of IL-10): 12.3 ± 3.5 µM
inhibition of lipopolysaccharide-induced expression of IL-8 ([10]; 100 μM): no inhibition
suppression of IL-8 production [10]: neither suppressed

CC(C)Cn1c(=O)n(C)c(=O)c2[nH]cnc21 [IBMX, 3-isobutyl-1-methylxanthine]
suppression of IL-6 production [5]: neither suppressed
increase of monocyte cAMP levels over media alone (in words) ([6]; 200 μM): at least a doubling
intracellular cAMP level ([6]; 200 μM): 8.3±1.9 pmol/10^7 cells
suppression of IL-1β production [8]: neither suppressed
inhibition of IL-10 production (in words) [9]: did not inhibit
suppression of IL-8 production [10]: neither suppressed

O=c1cc(-c2ccccc2)oc2ccccc12 [flavone]
inhibition of TNFα production (in words) [2]: much less active
IC50 [3]: 11 µM
increase of monocyte cAMP levels over media alone (in words) ([6]; 100 μM): much less
intracellular cAMP level ([6]; 100 μM): 3.6±1.1 pmol/10^7 cells

COc1ccc([C@@H]2CC(=O)c3c(O)cc(O[C@@H]4O[C@H](CO[C@@H]5O[C@@H](C)[C@H](O)[C@@H](O)[C@H]5O)[C@@H](O)[C@H](O)[C@H]4O)cc3O2)cc1O [hesperidin]
cytotoxicity towards cultured human monocytes (depletion of cellular LDH activity) [11]: no cytotoxicity
IC50 ([2]; Homo sapiens, Monocyte): > 200 µM

O=c1cc(-c2ccc(O)cc2)oc2cc(O)c([C@@H]3O[C@H](CO)[C@@H](O)[C@H](O)[C@H]3O)c(O)c12 [isovitexin]
cytotoxicity towards cultured human monocytes (depletion of cellular LDH activity) [11]: no cytotoxicity
IC50 [2, 13]: > 200 µM

O=c1c(O)c(-c2cc(O)c(O)c(O)c2)oc2cc(O)cc(O)c12 [myricetin]
cytotoxicity towards cultured human monocytes (depletion of cellular LDH activity) [11, 14]: lacked activity and any associated cytotoxicity
inhibition of TNFα production (in words) [2]: lacked activity; also recorded: much less active
IC50 [3]: 16 µM
increase of monocyte cAMP levels over media alone (in words) ([6]; 100 μM): much less
intracellular cAMP level ([6]; 100 μM): 3.7±1.0 pmol/10^7 cells

C[C@@H]1O[C@@H](O[C@H]2[C@H](Oc3cc(O)c4c(c3)O[C@H](c3ccc(O)cc3)CC4=O)O[C@H](CO)[C@@H](O)[C@@H]2O)[C@H](O)[C@H](O)[C@H]1O [naringin]
cytotoxicity towards cultured human monocytes (depletion of cellular LDH activity) [11]: no cytotoxicity
IC50 [2, 13]: > 200 µM
liver injury ([12]; lipopolysaccharide-induced): suppress
lipopolysaccharide-induced TNFα release [12]: suppress

C[C@@H]1O[C@@H](OC[C@H]2O[C@@H](Oc3cc(O)c4c(c3)O[C@H](c3ccc(O)cc3)CC4=O)[C@H](O)[C@@H](O)[C@@H]2O)[C@H](O)[C@H](O)[C@H]1O [narirutin]
cytotoxicity towards cultured human monocytes (depletion of cellular LDH activity) [11]: no cytotoxicity
IC50 [2, 13]: > 200 µM

CC1OC(OCC2OC(Oc3c(-c4ccc(O)cc4)oc4cc(OC5OC(C)C(O)C(O)C5O)cc(O)c4c3=O)C(O)C(O)C2O)C(O)C(O)C1O (stereo not shown) [robinin]
cytotoxicity towards cultured human monocytes (depletion of cellular LDH activity) [11, 14]: lacked activity and any associated cytotoxicity
inhibition of TNFα production (in words) [2]: lacked activity

isomargaretin
cytotoxicity towards cultured human monocytes (depletion of cellular LDH activity) [11]: no cytotoxicity
IC50 [2, 15]: > 200 µM

margaretin
cytotoxicity towards cultured human monocytes (depletion of cellular LDH activity) [11]: no cytotoxicity
IC50 [2, 15]: > 200 µM
